Measured values reported in ChEMBL document CHEMBL1127715, “Perhydrothiopyranopyrroles derivatives : A novel series of potent and selective nonpeptide NK1 antagonists” (Bioorg Med Chem Lett, 1994).

Tests used:
[1] = species: Cavia porcellus; assay: Compound was evaluated for antagonism of the contractile effect in guinea pig ileum preparation; type: functional
[2] = molecular target: T1, Substance-P receptor (Homo sapiens, UniProt P25103); assay: Compound was evaluated for binding affinity against human Tachykinin receptor 1
[3] = molecular target: T1, Substance-P receptor; assay: Compound was evaluated for its affinity, measured in [3H]SP binding assay on human IM9 lymphoblast cultured cell line
[4] = molecular target: Substance-P receptor (Cavia porcellus, UniProt P30547); assay: Compound was evaluated for its affinity to guinea pig Tachykinin receptor 1
[5] = molecular target: Substance-P receptor (Rattus norvegicus, UniProt P14600); assay: Compound was evaluated for its affinity to rat Tachykinin receptor 1
[6] = species: Mus musculus; assay: Compound was evaluated for inhibiting PBQ induced writhing in mice perorally; type: functional

T1 sequence (P25103 whole entry): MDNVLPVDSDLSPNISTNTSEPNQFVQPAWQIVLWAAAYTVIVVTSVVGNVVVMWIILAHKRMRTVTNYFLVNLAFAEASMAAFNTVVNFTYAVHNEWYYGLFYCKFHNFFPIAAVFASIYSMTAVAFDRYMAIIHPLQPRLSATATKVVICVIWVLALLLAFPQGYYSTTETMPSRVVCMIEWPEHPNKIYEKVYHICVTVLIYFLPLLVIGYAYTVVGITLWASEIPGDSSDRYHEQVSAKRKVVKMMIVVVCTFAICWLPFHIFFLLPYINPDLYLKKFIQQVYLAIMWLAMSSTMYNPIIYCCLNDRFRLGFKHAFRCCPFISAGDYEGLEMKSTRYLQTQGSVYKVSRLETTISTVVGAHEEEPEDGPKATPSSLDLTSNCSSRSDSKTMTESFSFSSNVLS
Substance-P receptor (Rattus norvegicus, UniProt P14600), sequence (P14600 whole entry): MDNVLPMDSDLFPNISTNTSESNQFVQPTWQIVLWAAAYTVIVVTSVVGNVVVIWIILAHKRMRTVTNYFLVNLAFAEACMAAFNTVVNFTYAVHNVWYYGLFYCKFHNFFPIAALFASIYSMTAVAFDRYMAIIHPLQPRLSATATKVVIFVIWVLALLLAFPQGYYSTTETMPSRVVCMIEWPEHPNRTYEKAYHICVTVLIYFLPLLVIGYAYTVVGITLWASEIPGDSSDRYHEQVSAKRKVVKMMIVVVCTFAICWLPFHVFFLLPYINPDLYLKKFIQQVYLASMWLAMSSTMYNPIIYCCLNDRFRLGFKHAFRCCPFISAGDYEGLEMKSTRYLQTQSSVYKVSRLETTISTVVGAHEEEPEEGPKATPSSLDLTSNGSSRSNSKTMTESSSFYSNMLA
Substance-P receptor (Cavia porcellus, UniProt P30547), sequence (P30547 whole entry): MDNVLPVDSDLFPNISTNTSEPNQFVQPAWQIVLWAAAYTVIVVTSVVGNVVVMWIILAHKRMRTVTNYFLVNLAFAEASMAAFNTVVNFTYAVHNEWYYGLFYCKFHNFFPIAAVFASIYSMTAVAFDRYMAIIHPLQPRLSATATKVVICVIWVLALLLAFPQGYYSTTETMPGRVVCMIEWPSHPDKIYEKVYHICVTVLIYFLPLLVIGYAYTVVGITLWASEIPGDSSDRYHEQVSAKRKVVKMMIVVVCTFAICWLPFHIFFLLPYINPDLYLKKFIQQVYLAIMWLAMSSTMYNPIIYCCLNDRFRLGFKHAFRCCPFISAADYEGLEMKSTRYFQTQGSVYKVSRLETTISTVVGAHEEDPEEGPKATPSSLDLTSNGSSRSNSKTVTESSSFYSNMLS

- IC50 [1]: 20 nM
- IC50 [2]: 23 nM
- IC50 [3]: 49 nM
- IC50 [4]: 70 nM
- IC50 [5]: 10 nM
Compound: COc1ccccc1[C@H](C)C(=O)N1CC2[C@@H](C1)C(c1ccccc1)(c1ccccc1)CC[S+]2[O-] (stereo partly specified)
- ED50 [6]: 5 mg/kg
